From PubChem BioAssay AID256 (DTP/NCI, 2004)
Where “and” joins values, the source holds several entries; their conditions need not be identical. Equal values may be shown once. Inconclusive results and toxic doses are left out. The calls were made as follows: active = survival T/C of 150% or more; inactive = T/C below 125% in these data.

Tested on: CD2F1 mice, L1210 leukemia ip, survival T/C
Experiment: NCI In Vivo Anticancer Drug Screen. Data for tumor model L1210 Leukemia (intraperitoneal) in CD2F1 (CDF1) mice
Settings: higher = longer survival
In short: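 Read-out first: treated-group measurement over vehicle-control measurement, expressed as a ratio. Animals bore a transplanted tumor line and were dosed with compound or vehicle.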

[1] = endpoint: mean survival time, dose: 100.0 mg/kg/injection, schedule: Q04DX002 (ip), vehicle: saline with Tween-80
[2] = endpoint: mean survival time, dose: 200.0 mg/kg/injection, schedule: Q04DX002 (ip), vehicle: saline with Tween-80
[3] = endpoint: mean survival time, dose: 400.0 mg/kg/injection, schedule: Q04DX002 (ip), vehicle: saline with Tween-80
[4] = endpoint: mean survival time, dose: 100.0 mg/kg/injection, schedule: Q01DX009 (ip), vehicle: other
[5] = endpoint: mean survival time, dose: 100.0 mg/kg/injection, schedule: Q04DX003 (ip), vehicle: saline with Tween-80
[6] = endpoint: mean survival time, dose: 200.0 mg/kg/injection, schedule: Q01DX009 (ip), vehicle: other
[7] = endpoint: mean survival time, dose: 200.0 mg/kg/injection, schedule: Q04DX003 (ip), vehicle: saline with Tween-80
[8] = endpoint: mean survival time, dose: 400.0 mg/kg/injection, schedule: Q04DX003 (ip), vehicle: saline with Tween-80
[9] = endpoint: mean survival time, dose: 100.0 mg/kg/injection, schedule: Q01DX001 (ip), vehicle: saline
[10] = endpoint: mean survival time, dose: 50.0 mg/kg/injection, schedule: Q01DX009 (ip), vehicle: saline with Tween-80

Measured: T/C

CN(C)C(=S)Oc1ccc(S(=O)(=O)F)cc1F
inactive: [1] 93 % of control | [2] 93 % of control | [3] 104 % of control

Fc1ccc(CC(F)F)cc1
inactive: endpoint: mean survival time, dose: 100.0 mg/kg/injection, schedule: Q01DX001 (ip), vehicle: saline with Tween-80 107 % of control | endpoint: mean survival time, dose: 200.0 mg/kg/injection, schedule: Q01DX001 (ip), vehicle: saline with Tween-80 98 % of control | endpoint: mean survival time, dose: 400.0 mg/kg/injection, schedule: Q01DX001 (ip), vehicle: saline with Tween-80 103 % of control

O=[N+]([O-])c1ccc(N/N=C(/C(=N/Nc2ccc([N+](=O)[O-])cc2)c2ccccc2)c2ccccc2)cc1
inactive: endpoint: mean survival time, dose: 12.5 mg/kg/injection, schedule: Q01DX009 (ip), vehicle: other 104 % of control | endpoint: mean survival time, dose: 25.0 mg/kg/injection, schedule: Q01DX009 (ip), vehicle: other 101 % of control | endpoint: mean survival time, dose: 50.0 mg/kg/injection, schedule: Q01DX009 (ip), vehicle: other 102 % of control | [4] 93 % of control | [5] 93 % of control | [6] 93 % of control | [7] 88 % of control | [8] 88 % of control

O=P(Cl)(Oc1cccc2c(OP(=O)(Cl)N(CCCl)CCCl)cccc12)N(CCCl)CCCl (stereo unspecified)
inactive: endpoint: mean survival time, dose: 31.25 mg/kg/injection, schedule: Q01DX001 (ip), vehicle: distilled water + Tween-80 100 % of control | endpoint: mean survival time, dose: 62.5 mg/kg/injection, schedule: Q01DX001 (ip), vehicle: distilled water + Tween-80 101 % of control | endpoint: mean survival time, dose: 125.0 mg/kg/injection, schedule: Q01DX001 (ip), vehicle: distilled water + Tween-80 91 % of control | endpoint: mean survival time, dose: 250.0 mg/kg/injection, schedule: Q01DX001 (ip), vehicle: distilled water + Tween-80 95 % of control | endpoint: mean survival time, dose: 500.0 mg/kg/injection, schedule: Q01DX001 (ip), vehicle: distilled water + Tween-80 92 % of control

O=C(O)C(S)C(S)C(=O)O.[As] (stereo unspecified)
inactive: endpoint: mean survival time, dose: 25.0 mg/kg/injection, schedule: Q04DX003 (ip), vehicle: saline 95 % of control | endpoint: mean survival time, dose: 50.0 mg/kg/injection, schedule: Q01DX001 (ip), vehicle: saline 89 % of control | endpoint: mean survival time, dose: 50.0 mg/kg/injection, schedule: Q04DX003 (ip), vehicle: saline 92 % of control | [9] 100 % of control | endpoint: mean survival time, dose: 100.0 mg/kg/injection, schedule: Q04DX003 (ip), vehicle: saline 100 % of control

NC(=S)c1ccc(OCCCc2ccccc2)cc1
inactive: endpoint: mean survival time, dose: 25.0 mg/kg/injection, schedule: Q01DX009 (ip), vehicle: saline with Tween-80 95 % of control | [10] 95 % of control

CCCCCC(O)C1C(=O)OC(C)C(O)/C=C/C=C/C=C/C=C\C=C(\C)C(O)CC(O)CC(O)CC(O)CC(O)CC(O)CC1O (stereo unspecified)
inactive: endpoint: median survival time, dose: 3.12 mg/kg/injection, schedule: Q01DX009 (ip), vehicle: distilled water + alcohol 104 % of control | endpoint: median survival time, dose: 6.25 mg/kg/injection, schedule: Q01DX009 (ip), vehicle: distilled water + alcohol 104 % of control | endpoint: median survival time, dose: 12.5 mg/kg/injection, schedule: Q01DX009 (ip), vehicle: distilled water + alcohol 104 % of control | endpoint: median survival time, dose: 25.0 mg/kg/injection, schedule: Q01DX009 (ip), vehicle: distilled water + alcohol 100 % of control

CN(C)c1ccc(N=Nc2ccc3c(c2)C(=O)c2ccccc2C3=O)cc1
inactive: endpoint: mean survival time, dose: 100.0 mg/kg/injection, schedule: Q04DX003 (ip), vehicle: other 95 % of control | endpoint: mean survival time, dose: 200.0 mg/kg/injection, schedule: Q04DX003 (ip), vehicle: other 93 % of control | endpoint: mean survival time, dose: 400.0 mg/kg/injection, schedule: Q04DX003 (ip), vehicle: other 98 % of control

CC1=C(C)CC([P+](c2ccccc2)(c2ccccc2)c2ccccc2)CC1 (stereo unspecified)
inactive: endpoint: mean survival time, dose: 6.25 mg/kg/injection, schedule: Q01DX001 (ip), vehicle: saline with Tween-80 98 % of control | endpoint: mean survival time, dose: 12.5 mg/kg/injection, schedule: Q01DX001 (ip), vehicle: saline with Tween-80 90 % of control | endpoint: mean survival time, dose: 25.0 mg/kg/injection, schedule: Q01DX001 (ip), vehicle: saline with Tween-80 94 % of control

O=C1C=C(c2ccccc2)C(O)(c2ccccc2)C1 (stereo unspecified)
inactive: [10] 89 % of control | endpoint: mean survival time, dose: 100.0 mg/kg/injection, schedule: Q01DX009 (ip), vehicle: saline with Tween-80 104 % of control | endpoint: mean survival time, dose: 200.0 mg/kg/injection, schedule: Q01DX009 (ip), vehicle: saline with Tween-80 89 % of control

CCOC(=O)/C(O)=C\c1cc(OC)nnc1Cl
inactive: endpoint: mean survival time, dose: 12.5 mg/kg/injection, schedule: Q04DX002 (ip), vehicle: saline with Tween-80 114 % of control | endpoint: mean survival time, dose: 25.0 mg/kg/injection, schedule: Q04DX002 (ip), vehicle: saline with Tween-80 101 % of control | endpoint: mean survival time, dose: 50.0 mg/kg/injection, schedule: Q04DX002 (ip), vehicle: saline with Tween-80 101 % of control

CC(C)OC(=O)COc1ccc(F)cc1F
inactive: [1] 92 % of control | [2] 95 % of control | [3] 89 % of control

O=C(O)C1(NO)CCCCC1
inactive: endpoint: mean survival time, dose: 12.5 mg/kg/injection, schedule: Q01DX009 (ip), vehicle: Klucel (hydroxypropylcellulose) (HPC) 102 % of control | endpoint: mean survival time, dose: 25.0 mg/kg/injection, schedule: Q01DX009 (ip), vehicle: Klucel (hydroxypropylcellulose) (HPC) 101 % of control | endpoint: mean survival time, dose: 50.0 mg/kg/injection, schedule: Q01DX009 (ip), vehicle: Klucel (hydroxypropylcellulose) (HPC) 103 % of control | endpoint: mean survival time, dose: 100.0 mg/kg/injection, schedule: Q01DX009 (ip), vehicle: Klucel (hydroxypropylcellulose) (HPC) 100 % of control | endpoint: mean survival time, dose: 200.0 mg/kg/injection, schedule: Q01DX009 (ip), vehicle: Klucel (hydroxypropylcellulose) (HPC) 97 % of control | endpoint: mean survival time, dose: 400.0 mg/kg/injection, schedule: Q01DX009 (ip), vehicle: Klucel (hydroxypropylcellulose) (HPC) 102 % of control

OCCOC1CCC(O)C2CCCCC12 (stereo unspecified)
inactive: endpoint: mean survival time, dose: 100.0 mg/kg/injection, schedule: Q01DX001 (ip), vehicle: saline sonified 103 % of control | endpoint: mean survival time, dose: 200.0 mg/kg/injection, schedule: Q01DX001 (ip), vehicle: saline sonified 98 % of control | endpoint: mean survival time, dose: 400.0 mg/kg/injection, schedule: Q01DX001 (ip), vehicle: saline sonified 109 % of control

C=CCCCCCCCCC(=O)NCC1CCCCO1 (stereo unspecified)
inactive: [5] 94 % of control | [7] 98 % of control | [8] 93 % of control

C/C(=N\NC(=S)N1CC2CCC(CC2)C1)c1cccc(C)n1
inactive: endpoint: median survival time, dose: 3.12 mg/kg/injection, schedule: Q01DX005 (ip), vehicle: saline with Tween-80 103 % of control | endpoint: median survival time, dose: 6.25 mg/kg/injection, schedule: Q01DX005 (ip), vehicle: saline with Tween-80 108 % of control | endpoint: median survival time, dose: 12.5 mg/kg/injection, schedule: Q01DX005 (ip), vehicle: saline with Tween-80 119 % of control | endpoint: median survival time, dose: 25.0 mg/kg/injection, schedule: Q01DX005 (ip), vehicle: saline with Tween-80 102 % of control and 108 % of control

CCOC(=O)Nc1cc(NCCCCc2ccccc2)c2[nH]cnc2n1
inactive: endpoint: mean survival time, dose: 100.0 mg/kg/injection, schedule: Q01DX001 (ip), vehicle: Klucel (hydroxypropylcellulose) (HPC) 95 % of control | endpoint: mean survival time, dose: 200.0 mg/kg/injection, schedule: Q01DX001 (ip), vehicle: Klucel (hydroxypropylcellulose) (HPC) 93 % of control | endpoint: mean survival time, dose: 400.0 mg/kg/injection, schedule: Q01DX001 (ip), vehicle: Klucel (hydroxypropylcellulose) (HPC) 102 % of control

COc1cccc(C(=O)CC(O)(C(F)(F)F)C(F)(F)F)c1
inactive: [4] 101 % of control | [6] 97 % of control | endpoint: mean survival time, dose: 400.0 mg/kg/injection, schedule: Q01DX009 (ip), vehicle: other 101 % of control

CC1(C)CCOC1=O
inactive: [9] 105 % of control | endpoint: mean survival time, dose: 200.0 mg/kg/injection, schedule: Q01DX001 (ip), vehicle: saline 103 % of control | endpoint: mean survival time, dose: 400.0 mg/kg/injection, schedule: Q01DX001 (ip), vehicle: saline 103 % of control

NCCSC1(O)C(=O)c2ccccc2C1=O
inactive: endpoint: mean survival time, dose: 37.5 mg/kg/injection, schedule: Q01DX009 (ip), vehicle: saline 109 % of control | endpoint: mean survival time, dose: 75.0 mg/kg/injection, schedule: Q01DX009 (ip), vehicle: saline 109 % of control | endpoint: mean survival time, dose: 150.0 mg/kg/injection, schedule: Q01DX009 (ip), vehicle: saline 89 % of control

O=C1C(O)=C(c2ccccc2)C(=O)C(O)=C1c1ccccc1
inactive: endpoint: mean survival time, dose: 3.12 mg/kg/injection, schedule: Q01DX009 (ip), vehicle: saline 96 % of control | endpoint: mean survival time, dose: 6.25 mg/kg/injection, schedule: Q01DX009 (ip), vehicle: saline 95 % of control | endpoint: mean survival time, dose: 12.5 mg/kg/injection, schedule: Q01DX009 (ip), vehicle: saline 97 % of control | endpoint: mean survival time, dose: 25.0 mg/kg/injection, schedule: Q01DX009 (ip), vehicle: saline 101 % of control | endpoint: mean survival time, dose: 50.0 mg/kg/injection, schedule: Q01DX009 (ip), vehicle: saline 108 % of control

O=C(N/N=C/c1ccc2c(c1)CCC2)c1ccncc1
inactive: [5] 98 % of control | [7] 96 % of control | [8] 98 % of control
